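How tested: cells in 96-well plates exposed to compound for 48 hours at five concentrations. GI50 = concentration required for 50% inhibition of growth. At the TGI there is no net growth.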
What was measured:
Test in all cases: inhibition of tumour cell growth, NCI panel, 48 h
[1] = tested on: HS 578T breast
[2] = tested on: MDA-N
[3] = tested on: HCT-116 colon
[4] = tested on: MDA-MB-231 breast
[5] = tested on: 786-0 renal
[6] = tested on: SN12C renal
[7] = tested on: HOP-62 NSCLC
[8] = tested on: T-47D breast
[9] = tested on: DMS 114 small cell lung
[10] = tested on: XF 498 CNS
[11] = tested on: M19-MEL melanoma
[12] = tested on: RXF-631 renal
[13] = tested on: SNB-78 CNS
[14] = tested on: DMS 273 small cell lung

Structure (SMILES)	TGI [1] [µM]	TGI [2] [µM]	TGI [3] [µM]	TGI [4] [µM]	TGI [5] [µM]	TGI [6] [µM]	TGI [7] [µM]	GI50 [1] [µM]	GI50 [8] [µM]	TGI [8] [µM]	GI50 [3] [µM]	GI50 [4] [µM]	GI50 [7] [µM]	TGI [9] [µM]	TGI [10] [µM]	GI50 [6] [µM]	TGI [11] [µM]	TGI [12] [µM]	TGI [13] [µM]	TGI [14] [µM]
CCCCCCCCCCCCCCCC(=O)OCC1CCCN2CCCCC12 (configuration not stated)	> 100	> 100	> 100	> 100	> 100	> 100	> 100													
CC[C@H](Nc1nc(N)nc(C)c1C#N)c1nc2cccc(NCc3ccc(C(=O)NO)cc3)c2c(=O)n1-c1ccccc1	6.08		4.34	5.3			6.22	1.95	1.18	4.66	1.82	1.84	2.35							
CCOC(=O)Nc1cc2c(c(N)n1)N=C(c1ccccc1)[C@H](C)N2		0.000122	0.0173			> 100	22.9						< 0.0001	< 0.0001	< 0.0001	< 0.0001	29.2			
O=C(N/C(=C\c1cccc([N+](=O)[O-])c1)c1nc2[nH]c(=S)[nH]c(=O)c2[nH]1)c1ccccc1			> 100		> 100	> 100	> 100							> 100	> 100		> 100	> 100	> 100	
C/C(=N\Oc1cc(Cl)ncn1)c1ccccn1	> 100	> 100	> 100	87.6		> 100	> 100			> 100										
NC(=S)Nc1cc(Cl)ccc1Cl			> 100			> 100	> 100							> 100	> 100		> 100	> 100	> 100	> 100
CC(=O)OC/C=C/Cn1ncc(=O)[nH]c1=O	> 100	> 100		> 100		> 100	> 100			> 100										
CC(C)OC(=O)C1=C(O)c2ccccc2S(=O)(=O)N1			> 100		> 100	> 100	> 100								> 100		> 100	> 100	> 100	> 100
O=C(CCl)NC(Cc1ccc(F)cc1)C(=O)O (configuration not stated)			> 100			> 100	> 100							> 100	> 100		> 100		> 100	> 100
CCOC(=O)[C@H]1Nc2c(cccc2[N+](=O)[O-])[C@H]2OCC[C@@H]12			> 100			> 100	> 100							> 100	> 100		> 100	> 100	> 100	> 100
Cc1ccc(C[P+]2(c3ccccc3)CCCCC2)cc1			> 100		> 100	> 100	> 100							64.1	0.537		50.5		92.4	> 100
Cc1ccc(S(=O)(=O)N/N=c2\c(C)c(C3=NS(=O)(=O)c4cc(S(N)(=O)=O)c(Cl)cc4N3)oc3c(Cl)cc(Cl)cc23)cc1			> 100		> 100	> 100	> 100							> 100			> 100	> 100	> 100	54
COc1cc(N/N=C/C#N)cc(OC)c1OC	> 10	> 10	> 10	> 10		> 10	> 10			> 10										
O=C1Nc2ccccc2S/C1=C\c1ccccc1C(F)(F)F	> 100	> 100	> 100	> 100	> 100	> 100	> 100			> 100										
CC1CCC(O)(C(C)(C(=O)O)c2ccccc2)CC1 (configuration not stated)	> 100	> 100	> 100	> 100	> 100	> 100	> 100			> 100										
Nc1nncc2c1ccn2C1OC(CO)C(O)C1O (configuration not stated)			> 100			> 100	> 100							> 100			> 100		> 100	> 100
O=C(O)NCc1ccccc1 (tested in a mixture with another compound)	> 82.8	> 94.4	> 100	> 72.2	> 100	> 100	> 100			> 81.6										
C=C1CC[C@@H](Br)C(C)(C)[C@]12CCC(C)(O)C(Cl)C2 (some centres not stated)			32.3			30	49.7							31.8			34.3	41.9	> 100	36.2
Cc1cc2c(cc1C)[n+](=O)c(C#N)c(Cl)n2[O-]	> 100	41.6	32	63.8		28.3	55.7													
CCC1CN2CCC1CC2 (configuration not stated)			> 100			> 100	> 100							> 100	> 100		> 100		> 100	> 100
CC(=O)O[C@H]1CC[C@@]2(C)C(=CC[C@@H]3[C@@H]2CC[C@]2(C)Nc4c(cnn4S(C)(=O)=O)C[C@@H]32)C1	> 100	> 100		> 100		> 100	> 100			> 100										
